Test results taken from PMC8556396, “Statin-mediated disruption of Rho GTPase prenylation and activity inhibits respiratory syncytial virus infection” (Communications Biology, 2021).
Several values for one entry are separate records, joined by “and”; a condition that tells them apart may be missing. Identical values can stand only once.

Assays:
[1] = in vivo; cited from earlier work
RSV A2 = test: Immunofluorescence staining and microscopy of RSV F and N; details: for RSV F intensity (a.u.): Fig 5D; for RSV N intensity (a.u.): Fig 5E;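 for RSV F intensity (a.u.): fluorescence normalized to total nuclear count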;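 for RSV N intensity (a.u.): fluorescence normalized to total nuclear count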
[2] = FTI-276 0.5 uM, perillyl alcohol 0.5 mM
[3] = FTI-276 1 uM, perillyl alcohol 1 mM

C=C(C)[C@@H]1CC=C(CO)CC1 [Perillyl alcohol, perillyl alcohol]
tolerability [1]: well-tolerated in humans | RSV F intensity (a.u.) (RSV A2; [2]): 4.838 a.u. and 4.168 a.u. and 3.383 a.u. | RSV F intensity (a.u.) (RSV A2; [3]): 5.114 a.u. and 3.157 a.u. | RSV F intensity (a.u.) (RSV A2; FTI-276 5 uM, perillyl alcohol 5 mM): 0.705 a.u. and 0.8175 a.u. and 0.8487 a.u. | RSV N intensity (a.u.) (RSV A2; [2]): 6.098 a.u. and 3.977 a.u. and 5.388 a.u. and 3.797 a.u. | RSV N intensity (a.u.) (RSV A2; [3]): 3.037 a.u. and 4.82 a.u. and 2.725 a.u. and 4.829 a.u. | effect of prenyltransferase inhibitor on RSV A2 infection (RSV A2; HEp-2, F and N immunofluorescence): dose-dependently reduced RSV A2 infection | reduction of N protein intensity (RSV A2; relative to DMSO, 48 h p.i., PA 5.0 mM, EHT 1864 20.0 µM): 82.7 ± 3.3%
